Test results from the NIST ThermoML archive (doi:10.1021/je200856f).

Experiment: mn = molality of the nth substance listed, in mol/kg
Conditions: 101 kPa, Liquid; for mass density: Vibrating tube method; for electrical conductivity: Wheatstone bridge equipment

C[N+](C)(C)CCCl.[Cl-] [2-chloro-N,N,N-trimethylethanaminium chloride] + O
Conditions	electrical conductivity [S/m]	mass density [kg/m3]	viscosity [mPa·s]
278.15 K, m1 = 0.0236	–	–	1.526
278.15 K, m1 = 0.0464	–	–	1.536
278.15 K, m1 = 0.0506	–	1001.45	–
278.15 K, m1 = 0.0994	–	–	1.555
278.15 K, m1 = 0.1009	–	1002.89	–
278.15 K, m1 = 0.2364	–	1006.79	–
278.15 K, m1 = 0.2464	–	–	1.61
278.15 K, m1 = 0.3552	–	–	1.656
278.15 K, m1 = 0.499	–	–	1.712
278.15 K, m1 = 0.501	–	1013.92	–
278.15 K, m1 = 0.6479	–	–	1.778
278.15 K, m1 = 0.6523	–	1017.88	–
278.15 K, m1 = 0.7493	–	–	1.815
278.15 K, m1 = 0.7529	–	1020.46	–
278.15 K, m1 = 0.9041	–	–	1.914
278.15 K, m1 = 0.9927	–	–	1.933
278.15 K, m1 = 1.176	–	–	2.01
278.15 K, m1 = 1.2	–	1031.18	–
278.15 K, m1 = 1.497	–	1038.13	–
278.15 K, m1 = 1.542	–	–	2.298
278.15 K, m1 = 1.986	–	1048.24	–
278.15 K, m1 = 2.148	–	–	2.612
288.15 K, m1 = 0.0236	–	–	1.148
288.15 K, m1 = 0.0464	–	–	1.156
288.15 K, m1 = 0.0506	–	1000.52	–
288.15 K, m1 = 0.0994	–	–	1.172
288.15 K, m1 = 0.1009	–	1001.9	–
288.15 K, m1 = 0.2364	–	1005.65	–
288.15 K, m1 = 0.2464	–	–	1.211
288.15 K, m1 = 0.3552	–	–	1.241
288.15 K, m1 = 0.499	–	–	1.286
288.15 K, m1 = 0.501	–	1012.48	–
288.15 K, m1 = 0.6479	–	–	1.335
288.15 K, m1 = 0.6523	–	1016.28	–
288.15 K, m1 = 0.7493	–	–	1.362
288.15 K, m1 = 0.7529	–	1018.75	–
288.15 K, m1 = 0.9041	–	–	1.433
288.15 K, m1 = 0.9927	–	–	1.447
288.15 K, m1 = 1.176	–	–	1.502
288.15 K, m1 = 1.2	–	1029.02	–
288.15 K, m1 = 1.497	–	1035.68	–
288.15 K, m1 = 1.542	–	–	1.708
288.15 K, m1 = 1.986	–	1045.39	–
288.15 K, m1 = 2.148	–	–	1.932
298.15 K, m1 = 0.0236	–	–	0.907
298.15 K, m1 = 0.0277	0.265	–	–
298.15 K, m1 = 0.0464	–	–	0.913
298.15 K, m1 = 0.0506	–	998.426	–
298.15 K, m1 = 0.0514	0.49	–	–
298.15 K, m1 = 0.0994	–	–	0.924
298.15 K, m1 = 0.1003	0.898	–	–
298.15 K, m1 = 0.1009	–	999.762	–
298.15 K, m1 = 0.2364	–	1003.4	–
298.15 K, m1 = 0.2464	–	–	0.955
298.15 K, m1 = 0.2497	1.97	–	–
298.15 K, m1 = 0.3502	2.58	–	–
298.15 K, m1 = 0.3552	–	–	0.977
298.15 K, m1 = 0.499	–	–	1.012
298.15 K, m1 = 0.5001	3.36	–	–
298.15 K, m1 = 0.501	–	1010.02	–
298.15 K, m1 = 0.6479	–	–	1.047
298.15 K, m1 = 0.6509	4.1	–	–
298.15 K, m1 = 0.6523	–	1013.7	–
298.15 K, m1 = 0.7493	–	–	1.069
298.15 K, m1 = 0.7498	4.51	–	–
298.15 K, m1 = 0.7529	–	1016.09	–
298.15 K, m1 = 0.8997	5.07	–	–
298.15 K, m1 = 0.9041	–	–	1.124
298.15 K, m1 = 0.9927	–	–	1.133
298.15 K, m1 = 0.9998	5.42	–	–
298.15 K, m1 = 1.176	–	–	1.173
298.15 K, m1 = 1.2	–	1026.04	–
298.15 K, m1 = 1.212	6.08	–	–
298.15 K, m1 = 1.497	–	1032.48	–
298.15 K, m1 = 1.507	6.81	–	–
298.15 K, m1 = 1.542	–	–	1.292
298.15 K, m1 = 1.986	–	1041.87	–
298.15 K, m1 = 1.998	7.67	–	–
298.15 K, m1 = 2.148	–	–	1.493
308.15 K, m1 = 0.0236	–	–	0.711
308.15 K, m1 = 0.0464	–	–	0.714
308.15 K, m1 = 0.0506	–	995.387	–
308.15 K, m1 = 0.0994	–	–	0.722
308.15 K, m1 = 0.1009	–	996.694	–
308.15 K, m1 = 0.2364	–	1000.25	–
308.15 K, m1 = 0.2464	–	–	0.757
308.15 K, m1 = 0.3552	–	–	0.77
308.15 K, m1 = 0.499	–	–	0.793
308.15 K, m1 = 0.501	–	1006.72	–
308.15 K, m1 = 0.6479	–	–	0.831
308.15 K, m1 = 0.6523	–	1010.32	–
308.15 K, m1 = 0.7493	–	–	0.833
308.15 K, m1 = 0.7529	–	1012.65	–
308.15 K, m1 = 0.9041	–	–	0.879
308.15 K, m1 = 0.9927	–	–	0.89
308.15 K, m1 = 1.176	–	–	0.915
308.15 K, m1 = 1.2	–	1022.36	–
308.15 K, m1 = 1.497	–	1028.63	–
308.15 K, m1 = 1.542	–	–	1.005
308.15 K, m1 = 1.986	–	1037.78	–
308.15 K, m1 = 2.148	–	–	1.158
318.15 K, m1 = 0.0236	–	–	0.596
318.15 K, m1 = 0.0464	–	–	0.595
318.15 K, m1 = 0.0506	–	991.452	–
318.15 K, m1 = 0.0994	–	–	0.602
318.15 K, m1 = 0.1009	–	992.837	–
318.15 K, m1 = 0.2364	–	996.273	–
318.15 K, m1 = 0.2464	–	–	0.645
318.15 K, m1 = 0.3552	–	–	0.66
318.15 K, m1 = 0.499	–	–	0.661
318.15 K, m1 = 0.501	–	1002.68	–
318.15 K, m1 = 0.6479	–	–	0.694
318.15 K, m1 = 0.6523	–	1006.2	–
318.15 K, m1 = 0.7493	–	–	0.691
318.15 K, m1 = 0.7529	–	1008.52	–
318.15 K, m1 = 0.9041	–	–	0.733
318.15 K, m1 = 0.9927	–	–	0.75
318.15 K, m1 = 1.176	–	–	0.759
318.15 K, m1 = 1.2	–	1018.06	–
318.15 K, m1 = 1.497	–	1024.21	–
318.15 K, m1 = 1.542	–	–	0.835
318.15 K, m1 = 1.986	–	1033.17	–
318.15 K, m1 = 2.148	–	–	0.948

O [water] + C[N+](C)(C)CCO.[Cl-]
Conditions	mass density [kg/m3]
278.15 K, m2 = 0	999.961
